Where two headings read alike, the source gives them in different places.

This note sets out measurements from patent US20260151375A1, “CDK2 INHIBITORS AND METHODS OF USING THE SAME” (Cedilla Therapeutics, Inc., priority 2022, published 2026).

Experiment [1] addresses T1, CDK2/Cyclin E1 (Homo sapiens, UniProt P24941).
T1 construct: purchased 14-475
As to the kind of experiment: Caliper Assay (LabChip EZ Reader mobility shift assay), inhibition of CDK2/Cyclin E1 activity. The experiment is classed as biochemical. The following applies: 2.5 nM CDK2/Cyclin E1(14-475), 100 μM ATP, 30 min preincubation; read-out: Caliper Assay (CDK2/CCNE1): IC50. The method, boiled down: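 Compounds were preincubated 30 min with CDK2/Cyclin E1(14-475), then run for 100 min with 2.5 nM enzyme, 100 μM ATP and 1.5 μM 5-FAM-QSPKKG peptide in HEPES pH 7.5 (final). Reactions were EDTA-stopped and substrate-to-product conversion read by mobility shift. IC50 came from a four-parameter fit.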

The subject of experiment [2] is Kuramochi cells. As to the kind of experiment: IncuCyte Kuramochi Assay (cell proliferation). Format: cell-based. Conditions: Kuramochi cells labeled with mApple-H2B, cell count, read-out: IncuCyte - Kuramochi RB-WT: IC50. The gist of the method: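 Cells imaged at 0 and 72 h after compound treatment (10 points, ½ log dilution, 20 μM top), with fluorescent nuclei counted. Fold change in count was normalized to DMSO wells and fitted to dose-response curves to give GI50.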

The target of experiment [3] is T1, CDK2/Cyclin E1. The experiment can be described thus: ADPGLO (CDK2/E1-37 C), ADP-Glo Luminescent Kinase Assay. Format: biochemical. Conditions: 0.18 nM CDK2/Cyclin E1, 100 μM ATP, Histone H1, 37° C. The method, then: Inhibition of CDK2/Cyclin E1 activity by the presence of small molecules was evaluated using ADP-Glo Luminescent Kinase Assay (Promega). Activated CDK2/Cyclin E1 was incubated with its substrate Histone H1 (SignalChem H10-54N) in the kinase reaction buffer (100 μM ATP, 50 mM HEPES pH 7.5, 10 mM MgCl2, 1 mM EDTA, 2 mM DTT, 0.01% Brij35, 0.5 mg/mL BSA). Luminescence was recorded with an Envision plate reader (PerkinElmer).
Dose titrations of inhibitors in 100% DMSO were combined with 0.36 nM CDK2/Cyclin E1 in reaction buffer. The mixtures were incubated for 60 minutes at 37° C. before the addition of ATP and Histone H1 substrate to initiate the kinase reaction. The final conditions were 0.18 nM CDK2/Cyclin E1, 100 μM ATP, and 1.5 μM Histone H1. The reactions were incubated at 37° C. for 90 minutes before being stopped with the addition of ADP-Glo reagent. This mixture was incubated at room temperature for 60 minutes before Kinase Detection Solution is added to generate luminescence. The stopped reactions were analyzed on an Envision plate reader. The conversion ratios were normalized to yield % activity, plotted against compound concentration, and fit to a four-parameter equation to determine the IC50 for each compound.

Regarding `CC1(C)C[C@@H]1C(=O)N1CC2(CN(C(=O)c3cnccn3)CC2c2nnc(C(F)(F)c3ccc(Cl)c(Cl)c3)o2)C1` (single isomer, unassigned) [I-45 2nd], the IC50 in experiment [1] is 0.1 to 1 µM; in experiment [2] (72 hours), more than 10 µM; in experiment [3], more than 10 µM.

Regarding `O=C(c1cn[nH]c1)N1CC(c2nnc(C(F)(F)c3ccc(Cl)c(Cl)c3)o2)C2(CN(CC3CCCO3)C2)C1` (centres unmarked) [I-143], the values for the IC50 in experiment [1], in experiment [2] (72 h) and in experiment [3] were more than 100 µM, more than 10 µM and more than 10 µM, respectively.

In the case of `CC(c1nc(C2CN(C(=O)c3cnn(Cc4cc(F)c(C(=O)O)c(F)c4)c3)CC23CN(C(=O)[C@H]2CC2(C)C)C3)no1)n1ccc(C2CCCC2)n1` (stereo partly drawn) [I-130, 4-((4-(8-(5-(1-(3-cyclopentyl-1H-pyrazol-1-yl)ethyl)-1,2,4-oxadiazol-3-yl)-2-((S)-2,2-dimethylcyclopropane-1-carbonyl)-2,6-diazaspiro[3.4]octane-6-carbonyl)-1H-pyrazol-1-yl)methyl)-2,6-difluorobenzoic acid], the IC50 was 0.01 to 0.1 µM in experiment [1], more than 10 µM in experiment [2] (72 h) and 0.5 to 5 µM in experiment [3].

As to `COc1cc(C(=O)N2CC(c3nnc(C(F)(F)c4ccc(Cl)c(Cl)c4)o3)C3(C2)CN(C(=O)[C@H]2CC2(F)F)C3)[nH]n1` (some centres unmarked) [I-138], the IC50 in experiment [1] was more than 10 µM; in experiment [2] (72 h), more than 10 µM; in experiment [3] it was more than 100 µM.

For the compound `CC(c1nc(C2CN(C(=O)c3cnn(Cc4ccc(C(=O)O)nc4)c3)CC23CN(C(=O)[C@H]2CC2(C)C)C3)no1)n1ccc(C2CCCC2)n1` (some centres unmarked) [I-126], the IC50 in experiment [1] is 0.1 to 1 µM; in experiment [2] (72 h), more than 10 µM; in experiment [3] it was more than 10 µM.

Regarding `CC1(C)C[C@@H]1C(=O)N1CC2(CN(C(=O)c3cnn(Cc4ccccc4)c3)C[C@H]2c2nnc(Cc3ccc(Cl)c(Cl)c3)o2)C1` [I-15, (1-benzyl-1H-pyrazol-4-yl)((S)-8-(5-(3,4-dichlorobenzyl)-1,3,4-oxadiazol-2-yl)-2-((S)-2,2-dimethylcyclopropane-1-carbonyl)-2,6-diazaspiro[3.4]octan-6-yl)methanone], the IC50 in experiment [1] was in the range of 0.01 to 0.1 µM; in experiment [2] (72 h) it was 5 to 10 µM; in experiment [3] it was 0.5 to 5 µM.

Regarding `CC1(C)C[C@@H]1C(=O)N1CC2(CN(C(=O)c3cncs3)CC2c2nnc(C(F)(F)c3ccc(Cl)c(Cl)c3)o2)C1` (some centres unmarked) [I-32], the IC50 in experiment [1] is 0.1 to 1 µM; in experiment [2] (72 h), more than 10 µM; in experiment [3] it was 0.5 to 5 µM.

`CC(c1nc(C2CN(C(=O)c3cnn(Cc4cccc(C(=O)O)c4)c3)CC23CN(C(=O)[C@H]2CC2(C)C)C3)no1)n1ccc(C2CCCC2)n1` (some centres unmarked) [I-131]: the IC50 is not above 0.01 µM in experiment [1], more than 10 µM in experiment [2] (72 h) and 0.5 to 5 µM in experiment [3].

As for `O=C(c1cc(C(F)(F)F)n[nH]1)N1CC(c2nnc(C(F)(F)c3ccc(Cl)c(Cl)c3)o2)C2(CN(CC3CCCO3)C2)C1` (centres unmarked) [I-142], the results for the IC50 in experiment [1], in experiment [2] (72 h) and in experiment [3] were more than 100 µM, more than 10 µM and more than 10 µM, respectively.

In the case of `COc1cn[nH]c1C(=O)N1CC(c2nnc(C(F)(F)c3ccc(Cl)c(Cl)c3)o2)C2(C1)CN(C(=O)[C@H]1CC1(F)F)C2` (stereo partly drawn) [I-137, (8-(5-((3,4-dichlorophenyl)difluoromethyl)-1,3,4-oxadiazol-2-yl)-2-((R)-2,2-difluorocyclopropane-1-carbonyl)-2,6-diazaspiro[3.4]octan-6-yl)(4-methoxy-1H-pyrazol-5-yl)methanone], the values for the IC50 in experiment [1], in experiment [2] (72 h) and in experiment [3] were 1 to 10 µM, more than 10 µM and more than 10 µM, respectively.

Turning to `O=C(c1cnc(O)cn1)N1CC(c2nnc(C(F)(F)c3ccc(Cl)c(Cl)c3)o2)C2(CN(CC3CCCO3)C2)C1` (centres unmarked) [I-140], the IC50 in experiment [1], in experiment [2] (72 h) and in experiment [3] was more than 10 µM in each case.

Regarding `COc1ccc(COc2cncc(C(=O)N3CC(c4nnc(C(F)(F)c5ccc(Cl)c(Cl)c5)o4)C4(C3)CN(C(=O)[C@H]3CC3(F)F)C4)n2)cc1` (some centres unmarked) [I-125], the IC50 was more than 100 µM in experiment [1], more than 10 µM in experiment [2] (72 h) and more than 100 µM in experiment [3].

`O=C(c1cnc(O)cn1)N1CC(c2nnc(C(F)(F)c3ccc(C4CCOCC4)cc3)o2)C2(C1)CN(C(=O)[C@H]1CC1(F)F)C2` (stereo partly drawn) [I-132, (8-(5-(difluoro(4-(tetrahydro-2H-pyran-4-yl)phenyl)methyl)-1,3,4-oxadiazol-2-yl)-2-((R)-2,2-difluorocyclopropane-1-carbonyl)-2,6-diazaspiro[3.4]octan-6-yl)(5-hydroxypyrazin-2-yl)methanone]: the figures for the IC50 in experiment [1], in experiment [2] (72 h) and in experiment [3] were 1 to 10 µM, more than 10 µM and more than 10 µM, respectively.

For `CC(c1nc(C2CN(C(=O)c3nccnc3O)CC23CN(C(=O)[C@H]2CC2(F)F)C3)no1)n1ccc(C2CCCC2)n1` (some centres unmarked) [I-129], the values for the IC50 in experiment [1], in experiment [2] (72 h) and in experiment [3] were more than 100 µM, more than 10 µM and more than 10 µM, respectively.

Regarding `CC(c1nc(C2CN(C(=O)c3cnn(CC(=O)O)c3)CC23CN(C(=O)[C@H]2CC2(C)C)C3)no1)n1ccc(C2CCCC2)n1` (stereo partly drawn) [I-110, 2-(4-(8-(5-(1-(3-cyclopentyl-1H-pyrazol-1-yl)ethyl)-1,2,4-oxadiazol-3-yl)-2-((S)-2,2-dimethylcyclopropane-1-carbonyl)-2,6-diazaspiro[3.4]octane-6-carbonyl)-1H-pyrazol-1-yl)acetic acid], the IC50 in experiment [2] (72 h) is more than 10 µM; in experiment [3], 5 to 10 µM.

As to `O=C(c1cnc(O)cn1)N1CC(c2nnc(C(C(=O)N3CCC(c4nccs4)CC3)c3ccc(C4CCOCC4)cc3)o2)C2(C1)CN(C(=O)C1(C(F)(F)F)CC1)C2` (centres unmarked) [I-209], the IC50 is not above 0.5 µM in experiment [2] (72 h) and more than 10 µM in experiment [3].

As for `COC(=O)c1cc(C(F)(F)F)ccc1Cn1cc(C(=O)N2CC(c3noc(C(C)n4ccc(C5(C(F)(F)F)CC5)n4)n3)C3(C2)CN(C(=O)C2(C(F)(F)F)CC2)C3)cn1` (centres unmarked) [I-219, methyl 5-(trifluoromethyl)-2-((4-(2-(1-(trifluoromethyl)cyclopropane-1-carbonyl)-8-(5-(1-(3-(1-(trifluoromethyl)cyclopropyl)-1H-pyrazol-1-yl)ethyl)-1,2,4-oxadiazol-3-yl)-2,6-diazaspiro[3.4]octane-6-carbonyl)-1H-pyrazol-1-yl)methyl)benzoate], the IC50 in experiment [2] (72 h) and in experiment [3] was more than 10 µM each time.

For the compound `CC(c1nc(C2CN(C(=O)c3cnn(Cc4ccc(C(F)(F)F)cc4)c3)CC23CN(C(=O)C2(C(F)(F)F)CC2)C3)no1)n1ccc(C2(C(F)(F)F)CC2)n1` (centres unmarked) [I-223, (1-(4-(trifluoromethyl)benzyl)-1H-pyrazol-4-yl)(2-(1-(trifluoromethyl)cyclopropane-1-carbonyl)-8-(5-(1-(3-(1-(trifluoromethyl)cyclopropyl)-1H-pyrazol-1-yl)ethyl)-1,2,4-oxadiazol-3-yl)-2,6-diazaspiro[3.4]octan-6-yl)methanone], the figures for the IC50 in experiment [2] (72 h) and in experiment [3] were 5 to 10 µM and more than 10 µM, respectively.

Consider `CC(c1nc(C2CN(C(=O)c3cnn(Cc4ccc(C#N)cc4)c3)CC23CN(C(=O)C2(C(F)(F)F)CC2)C3)no1)n1ccc(C2CCC(F)(F)CC2)n1` (centres unmarked) [I-210], for which the IC50 in experiment [2] (72 h) is not above 0.5 µM; in experiment [3] it was 0.5 to 5 µM.

Consider `CC(c1nc(C2CN(C(=O)c3cnc(O)cn3)CC23CN(C(=O)C2(C(F)(F)F)CC2)C3)no1)n1ccc(C2CCOCC2)n1` (centres unmarked) [I-115], for which the figures for the IC50 in experiment [2] (72 h) and in experiment [3] were 5 to 10 µM and 0.5 to 5 µM, respectively.

With `CC(c1nc(C2CN(C(=O)c3cnn(Cc4ccccc4C(=O)O)c3)CC23CN(C(=O)[C@H]2CC2(C)C)C3)no1)n1ccc(C2CCCC2)n1` (some centres unmarked) [I-123], the IC50 in experiment [2] (72 h) was more than 10 µM; in experiment [3], not above 0.5 µM.

As to `CC1(C)C[C@@H]1C(=O)N1CC2(CN(C(=O)c3cncs3)CC2c2nc3ccc(Oc4ccccc4-c4cncs4)cc3o2)C1` (stereo partly drawn) [I-221, (2-((S)-2,2-dimethylcyclopropane-1-carbonyl)-8-(6-(2-(thiazol-5-yl)phenoxy)benzo[d]oxazol-2-yl)-2,6-diazaspiro[3.4]octan-6-yl)(thiazol-5-yl)methanone], the IC50 in experiment [2] (72 h) was in the range of 5 to 10 µM; in experiment [3], 0.5 to 5 µM.

`O=C(c1cncc(O)n1)N1CC(c2nnc(C(F)(F)c3ccc(Cl)c(Cl)c3)o2)C2(C1)CN(C(=O)[C@H]1CC1(F)F)C2` (stereo partly drawn) [I-112, (8-(5-((3,4-dichlorophenyl)difluoromethyl)-1,3,4-oxadiazol-2-yl)-2-((R)-2,2-difluorocyclopropane-1-carbonyl)-2,6-diazaspiro[3.4]octan-6-yl)(6-hydroxypyrazin-2-yl)methanone]: the IC50 in experiment [2] (72 h) and in experiment [3] was more than 10 µM in each case.

With `COC(=O)c1cc(C#N)ccc1Cn1cc(C(=O)N2CC(c3noc(C(C)n4ccc(C5(C(F)(F)F)CC5)n4)n3)C3(C2)CN(C(=O)C2(C(F)(F)F)CC2)C3)cn1` (centres unmarked) [I-215], the IC50 in experiment [2] (72 h) lay in the range of 5 to 10 µM; in experiment [3], 0.5 to 5 µM.
